{"source": "ChEMBL document CHEMBL4507283", "about": "“Data for DCP probe BI-1935” (2021)", "key": {"[1]": {"target": "Serine/threonine-protein kinase PLK3 (Homo sapiens) (UniProt Q9H4B4)", "conditions": "Compound concentration 1000.0 nM"}, "[2]": {"target": "MAP kinase-interacting serine/threonine-protein kinase 2 (Homo sapiens) (UniProt Q9HBH9)", "conditions": "Compound concentration 1000.0 nM"}, "[3]": {"system": "Mast/stem cell growth factor receptor Kit (Homo sapiens), P10721 [A829P]", "conditions": "Compound concentration 1000.0 nM"}, "[4]": {"target": "Serine/threonine-protein kinase 16 (Homo sapiens) (UniProt O75716)", "sequence (O75716 whole entry)": "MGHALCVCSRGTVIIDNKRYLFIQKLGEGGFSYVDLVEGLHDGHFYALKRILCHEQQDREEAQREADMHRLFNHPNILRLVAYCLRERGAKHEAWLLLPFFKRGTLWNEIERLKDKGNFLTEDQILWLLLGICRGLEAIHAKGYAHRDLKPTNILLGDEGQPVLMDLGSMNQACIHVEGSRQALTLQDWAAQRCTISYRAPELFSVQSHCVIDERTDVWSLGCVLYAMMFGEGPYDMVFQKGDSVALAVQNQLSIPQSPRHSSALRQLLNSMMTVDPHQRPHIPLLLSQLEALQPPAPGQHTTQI", "conditions": "Compound concentration 1000.0 nM"}, "[5]": {"target": "Small conductance calcium-activated potassium channel protein 1 (Rattus norvegicus) (UniProt P70606)", "experiment": "K+/SKCA Eurofins-Panlabs selectivity data (BI)", "conditions": "Compound concentration 10.0 uM"}, "[6]": {"target": "Tyrosine-protein kinase Fer (Homo sapiens) (UniProt P16591)", "conditions": "Compound concentration 1000.0 nM"}, "[7]": {"target": "Rho-associated protein kinase 2 (Homo sapiens) (UniProt O75116)", "conditions": "Compound concentration 1000.0 nM"}, "[8]": {"target": "Serine/threonine-protein kinase 17B (Homo sapiens) (UniProt O94768)", "conditions": "Compound concentration 1000.0 nM"}, "[9]": {"target": "Receptor tyrosine-protein kinase erbB-4 (Homo sapiens) (UniProt Q15303)", "conditions": "Compound concentration 1000.0 nM"}, "[10]": {"target": "Serine/threonine-protein kinase PAK 6 (Homo sapiens) (UniProt Q9NQU5)", "conditions": "Compound concentration 1000.0 nM"}, "[11]": {"target": "Tyrosine-protein kinase Tec (Homo sapiens) (UniProt P42680)", "conditions": "Compound concentration 1000.0 nM"}, "[12]": {"target": "Dual specificity tyrosine-phosphorylation-regulated kinase 1B (Homo sapiens) (UniProt Q9Y463)", "conditions": "Compound concentration 1000.0 nM"}, "[13]": {"system": "Mast/stem cell growth factor receptor Kit (Homo sapiens), P10721 [L576P]", "conditions": "Compound concentration 1000.0 nM"}, "[14]": {"system": "Proto-oncogene tyrosine-protein kinase receptor Ret (Homo sapiens), P07949 [V804M]", "conditions": "Compound concentration 1000.0 nM"}, "[15]": {"target": "Alpha-2B adrenergic receptor (Homo sapiens) (UniProt P18089)", "conditions": "Compound concentration 10.0 uM"}, "[16]": {"target": "Beta-1 adrenergic receptor (Homo sapiens) (UniProt P08588)", "sequence (P08588 whole entry, looked up)": "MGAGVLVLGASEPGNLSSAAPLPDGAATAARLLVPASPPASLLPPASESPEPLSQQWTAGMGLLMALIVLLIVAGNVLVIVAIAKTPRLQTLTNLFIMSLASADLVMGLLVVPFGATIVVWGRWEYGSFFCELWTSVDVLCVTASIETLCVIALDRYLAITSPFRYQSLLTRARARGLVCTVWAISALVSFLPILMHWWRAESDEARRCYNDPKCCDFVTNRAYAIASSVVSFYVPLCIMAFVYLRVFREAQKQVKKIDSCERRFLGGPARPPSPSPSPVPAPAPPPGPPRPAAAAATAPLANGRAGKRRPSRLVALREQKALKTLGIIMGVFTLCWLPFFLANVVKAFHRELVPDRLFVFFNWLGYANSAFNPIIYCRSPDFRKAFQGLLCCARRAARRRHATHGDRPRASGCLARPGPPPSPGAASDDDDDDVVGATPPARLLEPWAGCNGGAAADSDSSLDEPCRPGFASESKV", "conditions": "Compound concentration 10.0 uM"}, "[17]": {"target": "Transient receptor potential cation channel subfamily M member 6 (Homo sapiens) (UniProt Q9BX84)", "conditions": "Compound concentration 1000.0 nM"}, "[18]": {"target": "Serine/threonine-protein kinase Nek3 (Homo sapiens) (UniProt P51956)", "conditions": "Compound concentration 1000.0 nM"}, "[19]": {"target": "NT-3 growth factor receptor (Homo sapiens) (UniProt Q16288)", "conditions": "Compound concentration 1000.0 nM"}, "[20]": {"target": "cAMP-dependent protein kinase catalytic subunit beta (Homo sapiens) (UniProt P22694)", "conditions": "Compound concentration 1000.0 nM"}, "[21]": {"target": "Ephrin type-A receptor 6 (Homo sapiens) (UniProt Q9UF33)", "sequence (Q9UF33 whole entry)": "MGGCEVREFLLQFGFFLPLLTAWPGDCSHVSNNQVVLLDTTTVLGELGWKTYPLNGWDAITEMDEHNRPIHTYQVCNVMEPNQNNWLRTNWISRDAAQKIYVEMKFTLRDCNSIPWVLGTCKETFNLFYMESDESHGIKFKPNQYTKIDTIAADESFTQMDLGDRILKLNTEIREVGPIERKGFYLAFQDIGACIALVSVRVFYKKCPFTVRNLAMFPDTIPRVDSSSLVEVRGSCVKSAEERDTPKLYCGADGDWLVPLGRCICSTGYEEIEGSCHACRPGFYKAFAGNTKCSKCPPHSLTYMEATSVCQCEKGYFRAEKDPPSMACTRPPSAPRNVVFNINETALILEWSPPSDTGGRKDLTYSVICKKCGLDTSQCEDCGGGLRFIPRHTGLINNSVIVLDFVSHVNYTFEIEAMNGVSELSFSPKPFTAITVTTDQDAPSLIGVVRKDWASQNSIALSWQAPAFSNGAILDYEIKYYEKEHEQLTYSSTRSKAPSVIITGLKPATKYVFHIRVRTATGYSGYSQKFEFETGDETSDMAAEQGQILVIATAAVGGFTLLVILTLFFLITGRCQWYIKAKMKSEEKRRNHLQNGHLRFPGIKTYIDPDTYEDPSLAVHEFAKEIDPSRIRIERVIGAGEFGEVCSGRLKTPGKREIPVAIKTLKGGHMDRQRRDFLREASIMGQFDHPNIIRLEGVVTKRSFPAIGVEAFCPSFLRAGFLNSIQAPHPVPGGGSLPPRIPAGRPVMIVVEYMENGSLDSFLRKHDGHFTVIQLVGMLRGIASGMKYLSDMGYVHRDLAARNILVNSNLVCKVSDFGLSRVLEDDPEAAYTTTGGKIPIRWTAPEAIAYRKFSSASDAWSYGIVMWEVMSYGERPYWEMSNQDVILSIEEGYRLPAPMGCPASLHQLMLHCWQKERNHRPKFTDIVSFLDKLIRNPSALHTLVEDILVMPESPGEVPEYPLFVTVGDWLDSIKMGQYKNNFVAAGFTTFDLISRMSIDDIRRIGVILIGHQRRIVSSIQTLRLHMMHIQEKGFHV", "conditions": "Compound concentration 1000.0 nM"}, "[22]": {"target": "Ribosomal protein S6 kinase alpha-6 (Homo sapiens) (UniProt Q9UK32)", "conditions": "Compound concentration 1000.0 nM"}, "[23]": {"target": "Mitogen-activated protein kinase 3 (Homo sapiens) (UniProt P27361)", "conditions": "Compound concentration 1000.0 nM"}, "[24]": {"target": "Maternal embryonic leucine zipper kinase (Homo sapiens) (UniProt Q14680)", "conditions": "Compound concentration 1000.0 nM"}, "[25]": {"target": "Serine/threonine-protein kinase Nek9 (Homo sapiens) (UniProt Q8TD19)", "conditions": "Compound concentration 1000.0 nM"}, "[26]": {"target": "Hormonally up-regulated neu tumor-associated kinase (Homo sapiens) (UniProt P57058)", "sequence (P57058 whole entry)": "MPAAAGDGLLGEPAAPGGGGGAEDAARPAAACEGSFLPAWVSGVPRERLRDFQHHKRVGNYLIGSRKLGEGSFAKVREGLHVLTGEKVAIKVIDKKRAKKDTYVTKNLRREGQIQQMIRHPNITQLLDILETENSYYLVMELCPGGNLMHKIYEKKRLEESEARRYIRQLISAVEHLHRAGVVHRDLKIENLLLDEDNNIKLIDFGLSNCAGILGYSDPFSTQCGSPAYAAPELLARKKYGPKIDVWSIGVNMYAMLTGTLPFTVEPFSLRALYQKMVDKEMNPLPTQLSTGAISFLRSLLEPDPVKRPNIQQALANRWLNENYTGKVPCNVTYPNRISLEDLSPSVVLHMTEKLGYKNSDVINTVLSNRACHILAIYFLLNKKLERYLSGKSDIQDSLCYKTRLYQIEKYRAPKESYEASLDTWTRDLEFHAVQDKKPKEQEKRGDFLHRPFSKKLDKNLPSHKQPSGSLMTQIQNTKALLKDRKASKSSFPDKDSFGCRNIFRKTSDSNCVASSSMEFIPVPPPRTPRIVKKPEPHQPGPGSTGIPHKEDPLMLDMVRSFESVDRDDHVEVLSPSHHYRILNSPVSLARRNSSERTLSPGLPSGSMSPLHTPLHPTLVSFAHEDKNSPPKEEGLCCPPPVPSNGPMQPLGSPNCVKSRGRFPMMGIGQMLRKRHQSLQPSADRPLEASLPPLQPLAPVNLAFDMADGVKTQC", "conditions": "Compound concentration 1000.0 nM"}, "[27]": {"target": "Tyrosine-protein kinase Lyn (Homo sapiens) (UniProt P07948)", "conditions": "Compound concentration 1000.0 nM"}, "[28]": {"target": "Ribosomal protein S6 kinase alpha-4 (Homo sapiens) (UniProt O75676)", "conditions": "Compound concentration 1000.0 nM"}, "[29]": {"target": "Beta-adrenergic receptor kinase 1 (Homo sapiens) (UniProt P25098)", "conditions": "Compound concentration 1000.0 nM"}, "[30]": {"target": "Mu-type opioid receptor (Homo sapiens) (UniProt P35372)", "conditions": "Compound concentration 10.0 uM"}, "[31]": {"target": "Peripheral plasma membrane protein CASK (Homo sapiens) (UniProt O14936)", "conditions": "Compound concentration 1000.0 nM"}, "[32]": {"target": "Serine/threonine-protein kinase PAK 4 (Homo sapiens) (UniProt O96013)", "sequence (O96013 whole entry, looked up)": "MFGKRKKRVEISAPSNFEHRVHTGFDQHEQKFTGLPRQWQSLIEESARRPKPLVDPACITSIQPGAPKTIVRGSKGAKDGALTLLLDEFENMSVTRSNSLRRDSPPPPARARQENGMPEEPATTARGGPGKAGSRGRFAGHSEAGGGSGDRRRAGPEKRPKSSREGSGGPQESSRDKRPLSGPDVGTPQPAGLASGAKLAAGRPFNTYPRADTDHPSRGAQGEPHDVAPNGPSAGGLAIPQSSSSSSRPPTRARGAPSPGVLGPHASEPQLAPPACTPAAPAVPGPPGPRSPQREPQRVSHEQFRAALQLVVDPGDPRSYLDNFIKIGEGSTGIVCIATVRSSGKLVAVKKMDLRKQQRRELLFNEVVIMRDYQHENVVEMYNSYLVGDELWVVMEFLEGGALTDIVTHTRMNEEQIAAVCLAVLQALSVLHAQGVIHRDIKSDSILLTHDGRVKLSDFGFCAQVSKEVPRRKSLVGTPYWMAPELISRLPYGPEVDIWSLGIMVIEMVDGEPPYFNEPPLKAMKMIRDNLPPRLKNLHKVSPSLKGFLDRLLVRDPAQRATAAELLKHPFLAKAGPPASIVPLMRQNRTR", "conditions": "Compound concentration 1000.0 nM"}, "[33]": {"target": "Atypical kinase COQ8B, mitochondrial (Homo sapiens) (UniProt Q96D53)", "conditions": "Compound concentration 1000.0 nM"}, "[34]": {"target": "Serine/threonine-protein kinase DCLK3 (Homo sapiens) (UniProt Q9C098)", "sequence (Q9C098 whole entry)": "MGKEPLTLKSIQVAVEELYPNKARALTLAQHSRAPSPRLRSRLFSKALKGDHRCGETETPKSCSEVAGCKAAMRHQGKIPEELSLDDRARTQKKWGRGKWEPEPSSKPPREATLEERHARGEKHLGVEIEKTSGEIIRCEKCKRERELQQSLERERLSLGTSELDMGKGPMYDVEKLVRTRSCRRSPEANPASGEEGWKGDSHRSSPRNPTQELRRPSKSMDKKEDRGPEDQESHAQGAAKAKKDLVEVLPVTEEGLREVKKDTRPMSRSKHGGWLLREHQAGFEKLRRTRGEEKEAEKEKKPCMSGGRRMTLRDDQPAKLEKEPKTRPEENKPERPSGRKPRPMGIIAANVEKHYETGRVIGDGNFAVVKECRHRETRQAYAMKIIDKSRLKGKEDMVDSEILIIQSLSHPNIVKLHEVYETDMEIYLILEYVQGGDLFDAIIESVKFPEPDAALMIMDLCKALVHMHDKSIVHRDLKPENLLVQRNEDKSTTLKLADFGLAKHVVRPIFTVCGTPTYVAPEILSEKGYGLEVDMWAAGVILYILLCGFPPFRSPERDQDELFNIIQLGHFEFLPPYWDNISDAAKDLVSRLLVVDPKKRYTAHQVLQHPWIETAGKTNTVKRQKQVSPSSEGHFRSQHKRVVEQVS", "conditions": "Compound concentration 1000.0 nM"}, "[35]": {"target": "Phosphatidylinositol 4-phosphate 5-kinase type-1 alpha (Homo sapiens) (UniProt Q99755)", "sequence (Q99755 whole entry)": "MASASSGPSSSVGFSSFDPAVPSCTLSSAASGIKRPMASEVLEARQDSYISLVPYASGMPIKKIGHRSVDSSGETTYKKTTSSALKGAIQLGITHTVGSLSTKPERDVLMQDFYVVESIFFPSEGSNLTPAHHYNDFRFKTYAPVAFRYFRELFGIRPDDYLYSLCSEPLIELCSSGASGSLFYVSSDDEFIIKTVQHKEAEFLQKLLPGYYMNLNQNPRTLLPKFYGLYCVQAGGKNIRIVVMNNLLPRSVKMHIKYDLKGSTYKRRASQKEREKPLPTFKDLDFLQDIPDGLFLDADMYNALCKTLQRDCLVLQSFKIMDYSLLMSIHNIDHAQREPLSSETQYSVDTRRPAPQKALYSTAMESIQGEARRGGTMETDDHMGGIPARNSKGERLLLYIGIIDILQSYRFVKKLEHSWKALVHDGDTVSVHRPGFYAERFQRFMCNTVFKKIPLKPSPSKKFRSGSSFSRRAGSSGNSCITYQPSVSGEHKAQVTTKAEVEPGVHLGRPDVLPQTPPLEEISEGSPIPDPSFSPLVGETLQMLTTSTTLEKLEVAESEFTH", "conditions": "Compound concentration 1000.0 nM"}, "[36]": {"system": "Tyrosine-protein kinase ABL1 (Homo sapiens), P00519 [F317I]", "conditions": "Compound concentration 1000.0 nM"}, "[37]": {"target": "D(4) dopamine receptor (Homo sapiens) (UniProt P21917)", "experiment": "D4.2/H Eurofins-Panlabs selectivity data (BI)", "conditions": "Compound concentration 10.0 uM"}, "[38]": {"target": "Mitogen-activated protein kinase kinase kinase 3 (Homo sapiens) (UniProt Q99759)", "sequence (Q99759 whole entry)": "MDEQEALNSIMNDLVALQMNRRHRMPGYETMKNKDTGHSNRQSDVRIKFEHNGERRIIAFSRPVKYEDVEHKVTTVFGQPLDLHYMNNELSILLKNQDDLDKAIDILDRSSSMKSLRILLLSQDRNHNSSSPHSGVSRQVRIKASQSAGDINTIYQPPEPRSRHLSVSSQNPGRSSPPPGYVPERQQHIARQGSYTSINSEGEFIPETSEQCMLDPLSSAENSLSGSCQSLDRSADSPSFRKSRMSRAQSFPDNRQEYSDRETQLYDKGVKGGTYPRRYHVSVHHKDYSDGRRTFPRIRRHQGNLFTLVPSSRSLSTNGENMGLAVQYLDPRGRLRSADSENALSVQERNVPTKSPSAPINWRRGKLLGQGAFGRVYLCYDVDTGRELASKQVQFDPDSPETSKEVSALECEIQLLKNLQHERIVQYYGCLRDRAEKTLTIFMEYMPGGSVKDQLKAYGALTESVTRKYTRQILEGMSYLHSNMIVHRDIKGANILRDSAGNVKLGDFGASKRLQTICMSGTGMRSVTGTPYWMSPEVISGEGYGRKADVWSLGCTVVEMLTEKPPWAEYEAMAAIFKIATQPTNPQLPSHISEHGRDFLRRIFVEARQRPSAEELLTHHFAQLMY", "conditions": "Compound concentration 1000.0 nM"}, "[39]": {"target": "Myosin light chain kinase (Homo sapiens) (UniProt Q32MK0)", "conditions": "Compound concentration 1000.0 nM"}, "[40]": {"target": "Interleukin-1 receptor-associated kinase 1 (Homo sapiens) (UniProt P51617)", "conditions": "Compound concentration 1000.0 nM"}, "[41]": {"target": "Mitogen-activated protein kinase kinase kinase 5 (Homo sapiens) (UniProt Q99683)", "conditions": "Compound concentration 1000.0 nM"}, "[42]": {"target": "Dual specificity testis-specific protein kinase 1 (Homo sapiens) (UniProt Q15569)", "conditions": "Compound concentration 1000.0 nM"}, "[43]": {"system": "Tyrosine-protein kinase ABL1 (Homo sapiens), P00519 [F317L]", "conditions": "Compound concentration 1000.0 nM"}, "[44]": {"target": "Serine/threonine-protein kinase NIM1 (Homo sapiens) (UniProt Q8IY84)", "conditions": "Compound concentration 1000.0 nM"}, "[45]": {"target": "Tyrosine-protein kinase receptor UFO (Homo sapiens) (UniProt P30530)", "conditions": "Compound concentration 1000.0 nM"}}}
{"compound": "CCOCCn1cc(C(=O)Nc2ccc(-n3nc(-c4cccnc4)cc3C(F)(F)F)cn2)ccc1=O", "note": "[BI 1935]", "values": [{"measurement": "residual activity", "setting": "[1]", "value": 84, "unit": "%"}, {"measurement": "residual activity", "setting": "[2]", "value": 100, "unit": "%"}, {"measurement": "residual activity", "setting": "[3]", "value": 100, "unit": "%"}, {"measurement": "residual activity", "setting": "[4]", "value": 92, "unit": "%"}, {"measurement": "residual activity", "setting": "[5]", "value": 106, "unit": "%"}, {"measurement": "residual activity", "setting": "[6]", "value": 100, "unit": "%"}, {"measurement": "residual activity", "setting": "[7]", "value": 88, "unit": "%"}, {"measurement": "residual activity", "setting": "[8]", "value": 81, "unit": "%"}, {"measurement": "residual activity", "setting": "[9]", "value": 100, "unit": "%"}, {"measurement": "residual activity", "setting": "[10]", "value": 100, "unit": "%"}, {"measurement": "residual activity", "setting": "[11]", "value": 100, "unit": "%"}, {"measurement": "residual activity", "setting": "[12]", "value": 39, "unit": "%"}, {"measurement": "residual activity", "setting": "[13]", "value": 94, "unit": "%"}, {"measurement": "residual activity", "setting": "[14]", "value": 100, "unit": "%"}, {"measurement": "inhibition", "setting": "[15]", "value": 4.9, "unit": "%"}, {"measurement": "inhibition", "setting": "[16]", "value": -9.69, "unit": "%"}, {"measurement": "residual activity", "setting": "[17]", "value": 73, "unit": "%"}, {"measurement": "residual activity", "setting": "[18]", "value": 100, "unit": "%"}, {"measurement": "residual activity", "setting": "[19]", "value": 100, "unit": "%"}, {"measurement": "residual activity", "setting": "[20]", "value": 100, "unit": "%"}, {"measurement": "residual activity", "setting": "[21]", "value": 93, "unit": "%"}, {"measurement": "residual activity", "setting": "[22]", "value": 81, "unit": "%"}, {"measurement": "residual activity", "setting": "[23]", "value": 100, "unit": "%"}, {"measurement": "residual activity", "setting": "[24]", "value": 93, "unit": "%"}, {"measurement": "residual activity", "setting": "[25]", "value": 100, "unit": "%"}, {"measurement": "residual activity", "setting": "[26]", "value": 93, "unit": "%"}, {"measurement": "residual activity", "setting": "[27]", "value": 81, "unit": "%"}, {"measurement": "residual activity", "setting": "[28]", "value": 100, "unit": "%"}, {"measurement": "residual activity", "setting": "[29]", "value": 75, "unit": "%"}, {"measurement": "inhibition", "setting": "[30]", "value": 2.68, "unit": "%"}, {"measurement": "residual activity", "setting": "[31]", "value": 85, "unit": "%"}, {"measurement": "residual activity", "setting": "[32]", "value": 100, "unit": "%"}, {"measurement": "residual activity", "setting": "[33]", "value": 100, "unit": "%"}, {"measurement": "residual activity", "setting": "[34]", "value": 100, "unit": "%"}, {"measurement": "residual activity", "setting": "[35]", "value": 100, "unit": "%"}, {"measurement": "residual activity", "setting": "[36]", "value": 74, "unit": "%"}, {"measurement": "residual activity", "setting": "[37]", "value": 103, "unit": "%"}, {"measurement": "residual activity", "setting": "[38]", "value": 100, "unit": "%"}, {"measurement": "residual activity", "setting": "[39]", "value": 97, "unit": "%"}, {"measurement": "residual activity", "setting": "[40]", "value": 84, "unit": "%"}, {"measurement": "residual activity", "setting": "[41]", "value": 100, "unit": "%"}, {"measurement": "residual activity", "setting": "[42]", "value": 85, "unit": "%"}, {"measurement": "residual activity", "setting": "[43]", "value": 79, "unit": "%"}, {"measurement": "residual activity", "setting": "[44]", "value": 100, "unit": "%"}, {"measurement": "residual activity", "setting": "[45]", "value": 91, "unit": "%"}]}
